# In patent US5200505A, “R106 compounds” (Takara Shuzo Co., Ltd., priority 1990, dated 1993):
# Numbered stars: 1 amine (or outer) side, 2 acyl side, 3 side chain; on linkers, the order of the positions; unused ones are H or OH. Square brackets hold non-standard residues; d marks the D form. Peptide text beside a SMILES is read from it. NMePhe(3-F) = CN[C@@H](Cc1cccc(F)c1)C(=O)O; NMePhe(2-F) = CN[C@@H](Cc1ccccc1F)C(=O)O; NMeVal(β-OH) = CN[C@H](C(=O)O)C(C)(C)O; Phe(3-F) = N[C@@H](Cc1cccc(F)c1)C(=O)O; Phe(2-F) = N[C@@H](Cc1ccccc1F)C(=O)O; NMeY = CN[C@@H](Cc1ccc(O)cc1)C(=O)O; NMeF = CN[C@@H](Cc1ccccc1)C(=O)O; aIle = CC[C@@H](C)[C@H](N)C(=O)O; X1 = CCC(C)C(O[*:1])C(=O)[*:2]; NMeV = CN[C@H](C(=O)O)C(C)C; NMeS = CN[C@@H](CO)C(=O)O; Thz = O=C(O)[C@@H]1CSCN1
# Assay: Solubility in water
# Assay type: physicochemical
# Details: compared with antibiotics R106
row,Compound,solubility in water
1,CCC(C)C1OC(=O)[C@H](C(C)(C)O)N(C)C(=O)[C@H](CC(C)C)NC(=O)[C@H](C(C)C)N(C)C(=O)[C@H]([C@H](C)CC)NC(=O)[C@@H]2CCCN2C(=O)[C@H](Cc2ccccc2F)N(C)C(=O)[C@H](Cc2ccccc2F)NC(=O)[C@H](C(C)C)N(C)C1=O (stereo partly drawn) [Compound 1] (cyclo(L[NMeVal(β-OH)][X1][NMeV][Phe(2-F)][NMePhe(2-F)]P[aIle][NMeV])),higher
2,CCC(C)C1OC(=O)[C@H](C(C)(C)O)N(C)C(=O)[C@H](CC(C)C)NC(=O)[C@H](C(C)C)N(C)C(=O)[C@H]([C@H](C)CC)NC(=O)[C@@H]2CCCN2C(=O)[C@H](Cc2cccc(F)c2)N(C)C(=O)[C@H](Cc2cccc(F)c2)NC(=O)[C@H](C(C)C)N(C)C1=O (stereo partly drawn) [Compound 2] (cyclo(L[NMeVal(β-OH)][X1][NMeV][Phe(3-F)][NMePhe(3-F)]P[aIle][NMeV])),higher
3,CCC(C)C1OC(=O)[C@H](C(C)(C)O)N(C)C(=O)[C@H](CC(C)C)NC(=O)[C@H](C(C)C)N(C)C(=O)[C@H]([C@H](C)CC)NC(=O)[C@@H]2CCCN2C(=O)[C@H](CO)N(C)C(=O)[C@H](Cc2ccccc2)NC(=O)[C@H](C(C)C)N(C)C1=O (stereo partly drawn) [Compound 9] (cyclo(F[NMeS]P[aIle][NMeV]L[NMeVal(β-OH)][X1][NMeV])),higher
4,CCC(C)C1OC(=O)[C@H](C(C)(C)O)N(C)C(=O)[C@H](CC(C)C)NC(=O)[C@H](C(C)C)N(C)C(=O)[C@H]([C@H](C)CC)NC(=O)[C@@H]2CSCN2C(=O)[C@H](Cc2ccccc2)N(C)C(=O)[C@H](Cc2ccccc2)NC(=O)[C@H](C(C)C)N(C)C1=O (stereo partly drawn) [Compound 5] (cyclo(F[NMeF][Thz][aIle][NMeV]L[NMeVal(β-OH)][X1][NMeV])),higher
5,CCC(C)C1OC(=O)[C@H](C(C)(C)O)N(C)C(=O)[C@H](CC(C)C)NC(=O)[C@H](C(C)C)N(C)C(=O)[C@H]([C@H](C)CC)NC(=O)[C@@H]2CCCN2C(=O)[C@H](Cc2ccc(O)cc2)N(C)C(=O)[C@H](Cc2ccc(O)cc2)NC(=O)[C@H](C(C)C)N(C)C1=O (stereo partly drawn) [Compound 3] (cyclo(L[NMeVal(β-OH)][X1][NMeV]Y[NMeY]P[aIle][NMeV])),higher
